Data on four substances can be found in publication PMC12186253, “Grafted Coiled-Coil Peptides as Multivalent Scaffolds for Protein Recognition” (ACS Chemical Biology, 2025).

One may read the IC50 as the concentration that inhibits the measured activity by half. Higher therefore signals a need for much substance.

A short description of series [1]: CD thermal unfolding of individual components (peptide or protein alone). The series is classed as physicochemical. As to conditions: CD at 222 nm, 5-85 °C, 20 °C/h; 25 μM in 20 mM phosphate, 100 mM NaCl, pH 7.4.
Procedure: CD spectroscopy was used to investigate the secondary structures and thermal stabilities of the designed peptides alone and in the presence of MCL-1.
prepared at 200 – 500 µM in deionized water from solid peptides) were diluted into phosphate
buffer (20 mM phosphate, 100 mM NaCl, pH 7.4) to a final concentration of 25 µM for individual
components, and at a 1:1 ratio (final concentration of all components set as 50 µM for
homomeric species and 75 µM for heterodimeric complex with MCL-1, or 1:1:1 ratio) of the
number of binding sites on the coiled-coil peptides to BH3 binding domain on the protein.
Wavelength spectra were collected (average of 5 scans, from 190 – 300 nm) to evaluate
secondary structure of the individual components and the peptide:protein complexes at 20 °C.
Thermal unfolding experiments monitored the α helical minima at 222 nm from 5 – 85 °C with
a heating ramp of 20 °C/h , and Tm was calculated from the mid -point of unfolding transitions.
A background spectrum of the buffer alone was also collected and subtracted from raw sample
ellipticity values during data conversion.
Data were collected on an APP Chirascan CD spectropolarimeter using 1 mm pathlength
quartz cuvettes. Raw ellipticity data w ere converted to mean residue ellipticity (MRE) using
MRE = (([θ]λ – [θ]0) x Mw) / (n x l x c) […]
curves, the fraction folded was calculated with the following equation […]
For series [2], the target named is T1, FAM-Ahx-BID/MCL-1 complex (Homo sapiens, UniProt Q07820).
T1 construct: residues 172 – 327; His6-SUMO (N, cleaved yes); made in house; host or cells: E. coli BL21-Gold (pET28a)
The series can be described thus: Fluorescence anisotropy competition assay, FAM-Ahx-BID/MCL-1. The series is classed as binding. From the text:
(1 picture or pasted object on this page, not shown here) […]
A general note: Fluorescence polarisation rises when a labelled molecule tumbles more slowly, as on binding a larger partner.

T1 sequence (Q07820 172-327, one chain of several): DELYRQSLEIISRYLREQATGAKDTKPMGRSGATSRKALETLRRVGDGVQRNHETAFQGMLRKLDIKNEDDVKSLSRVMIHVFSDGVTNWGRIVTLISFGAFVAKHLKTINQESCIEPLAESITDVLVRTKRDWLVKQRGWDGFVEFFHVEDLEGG

For the substance “MCL-1: α-helix-binding antiapoptotic target protein, residues 172 – 327, expressed in E. coli”, the “Tm (thermal unfolding midpoint), component alone” value in series [1] came out at 62 °C.

Turning to “Ac-GEILAIKQEILRIIGDNVAIKQEILNIKQGYG-NH2 [CC-Tri_E1]”, the IC50 in series [2] turned out to be 68 ± 16 µM.

Consider “Ac-GEILALKQEILRLIGDNVALKQEILNLKQGYG-NH2 [CC-Di_E1]”, for which the IC50 in series [2] turned out to be 0.8 ± 0.1 µM.

“Ac-GELLAIKQELLRIIGDLVAIKQELLNIKQGYG-NH2 [CC-Tet_E1]” came in with an IC50 in series [2] of 7.4 ± 0.8 µM.
